Test results reported in patent US20240025906A1 (NEURON23, INC., priority 2022, published 2024).
Counter-ions that a name gives are not always drawn. Like-named read-outs stand apart in the source and are kept apart here.

Legend:
[1] = system: JAK1/TYK2 pSTAT5 (Tyr694/699) in THP-1 cell line; assay: IFNa-stimulated JAK1/TYK2 pSTAT5 (Tyr694/699) inhibition cellular assay, AlphaLISA; type: cell-based; settings: Homo sapiens; THP-1 cells, IFNa-stimulated, AlphaLISA (Assay B); read-out: Cellular_THP1_IFNa-pSTATS_TYK2
Procedure, shortened: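 The readout is AlphaLISA signal at 615 nm for phospho-STAT5 in THP-1 lysates after IFNa stimulation (added at 100 ng/mL, 30 min, 37 °C). Cells had compound for 1 h beforehand across eight 6-fold concentrations up to 10000 nM final. IC50s are 4PL fits with bottom and Hill slope constrained.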

TYK2 JH2 = target: T1, TYK2 JH2 (Homo sapiens, UniProt P29597); assay: TYK2 JH2 binding assay (KINOMEscan KdELECT competitive binding); settings: TYK2 JH2 domain, read-out: Biochemical TYK2_DiscoverX_JH2_BND_Kd
T1 construct: purchased DiscoverX (KINOMEscan KdELECT service); host or cells: E. coli BL21-derived (T7 phage display) or HEK-293
Procedure, shortened: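 Test compounds were titrated in 11 three-fold steps against JH2 fragment captured on ligand-loaded magnetic beads, with 1 h incubation at room temperature and DMSO at 0.9%. Eluted kinase was quantified by qPCR, and Kd was fitted from the dose series.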

[2] = DiscoverX KINOMEscan KdELECT (Assay A)

T1 sequence (P29597 589-875 limits assumed): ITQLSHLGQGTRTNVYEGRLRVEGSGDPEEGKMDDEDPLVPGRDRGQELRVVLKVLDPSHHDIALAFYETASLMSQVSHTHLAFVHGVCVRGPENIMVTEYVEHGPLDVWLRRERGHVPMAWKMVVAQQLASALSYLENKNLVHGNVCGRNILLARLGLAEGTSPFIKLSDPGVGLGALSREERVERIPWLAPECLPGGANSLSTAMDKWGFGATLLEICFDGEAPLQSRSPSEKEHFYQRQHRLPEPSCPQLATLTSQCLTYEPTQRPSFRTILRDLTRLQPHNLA

| Structure (SMILES) | IC50 [1] | Kd (TYK2 JH2; [2]) | Kd (TYK2 JH2; KINOMEscan KdELECT (Assay A)) |
| --- | --- | --- | --- |
| CNc1ncc(-c2nc3cc(N4CCOCC4)ccc3o2)c2cc(NC(=O)[C@@H]3C[C@@H]3CF)ncc12 (single isomer, unassigned) [Example 452] | ≤ 500 nM | ≤ 100 nM |  |
| CNc1ncc(-c2nc3cc(OC)ccc3o2)c2cc(NC(=O)[C@H]3C[C@H]3CO)ncc12 (single isomer, unassigned) [Example 467] | ≤ 500 nM | ≤ 100 nM |  |
| CNc1ncc(-c2nc3cc(OC)ccc3o2)c2cc(NC(=O)[C@@H]3C[C@@H]3CO)ncc12 (single isomer, unassigned) [Example 468] | ≤ 500 nM | ≤ 100 nM |  |
| CC[C@@H]1C[C@H]1C(=O)Nc1cc2c(-c3nc4ccc(OC)cn4n3)cnc(NC)c2cn1 (single isomer, unassigned) [Example 522] | ≤ 500 nM | ≤ 100 nM |  |
| CNc1ncc(-c2nc3ccc(N4CCOCC4)cn3n2)c2cc(NC(=O)[C@@H](C)F)ncc12 (single isomer, unassigned) [Example 532] | ≤ 500 nM | ≤ 100 nM |  |
| CNc1ncc(-c2nc3ccc(N4CCOCC4)cn3n2)c2cc(NC(=O)[C@H](C)F)ncc12 (single isomer, unassigned) [Example 533] | > 500 nM | ≤ 100 nM |  |
| CNc1ncc(-c2nc3ccc(N4CCOCC4)cn3n2)c2cc(NC(=O)[C@H]3C[C@H]3C(F)F)ncc12 (single isomer, unassigned) [Example 534] | ≤ 500 nM | ≤ 100 nM |  |
| CNc1ncc(-c2nc3ccc(N4CCOCC4)cn3n2)c2cc(NC(=O)[C@@H]3C[C@@H]3C(F)F)ncc12 (single isomer, unassigned) [Example 535] | ≤ 500 nM | ≤ 100 nM |  |
| CNc1ncc(-c2nc3ccc(N4CCO[C@@H](C)C4)cn3n2)c2cc(NC(=O)[C@H]3C[C@H]3C(F)(F)F)ncc12 (single isomer, unassigned) [Example 541] | ≤ 500 nM | ≤ 100 nM |  |
| CNc1ncc(-c2nc3ccc(N4CCO[C@@H](C)C4)cn3n2)c2cc(NC(=O)[C@@H]3C[C@@H]3C(F)(F)F)ncc12 (single isomer, unassigned) [Example 542] | ≤ 500 nM | ≤ 100 nM |  |
| [2H]C([2H])([2H])Nc1ncc(-c2nc3ccc(N4CCO[C@@H](C)C4)cn3n2)c2cc(NC(=O)[C@H]3C[C@H]3C(F)F)ncc12 (single isomer, unassigned) [Example 574] | ≤ 500 nM | ≤ 100 nM |  |
| CC[C@H]1C[C@@H]1C(=O)Nc1cc2c(-c3nc4ccc(N5CCOCC5)cn4n3)cnc(NC)c2cn1 (single isomer, unassigned) [Example 585] | ≤ 500 nM | ≤ 100 nM |  |
| CC[C@@H]1C[C@H]1C(=O)Nc1cc2c(-c3nc4ccc(N5CCOCC5)cn4n3)cnc(NC)c2cn1 (single isomer, unassigned) [Example 586] | ≤ 500 nM | ≤ 100 nM |  |
| CNc1ncc(-c2nc3ccc(N4CCOCC4)cn3n2)c2cc(NC(=O)[C@@H]3CC34CC4)ncc12 (single isomer, unassigned) [Example 587, formate] | ≤ 500 nM | ≤ 100 nM |  |
| CNc1ncc(-c2nc3ccc(N4CCOCC4)cn3n2)c2cc(NC(=O)[C@H]3CC34CC4)ncc12 (single isomer, unassigned) [Example 588, formate] | ≤ 500 nM | ≤ 100 nM |  |
| CNc1ncc(C#Cc2ccc3c(c2)OC[C@H](COC)O3)c2cc(NC(=O)C3CC3)ncc12 (single isomer, unassigned) [Example 698] | ≤ 500 nM |  | ≤ 100 nM |
| CNc1ncc(C#Cc2ccc3c(c2)OC[C@@H](COC)O3)c2cc(NC(=O)C3CC3)ncc12 (single isomer, unassigned) [Example 699] | ≤ 500 nM |  | ≤ 100 nM |
| CNc1ncc(C#Cc2ccc(OC)cn2)c2cc(NC(=O)[C@H]3C[C@H]3C(F)F)ncc12 (single isomer, unassigned) [Example 745] | ≤ 500 nM |  | ≤ 100 nM |
| CNc1ncc(C#Cc2ccc(OC)cn2)c2cc(NC(=O)[C@@H]3C[C@@H]3C(F)(F)F)ncc12 (single isomer, unassigned) [Example 746] | ≤ 500 nM |  | ≤ 100 nM |
| CNc1ncc(C#Cc2ccc(OC)cn2)c2cc(NC(=O)[C@H]3C[C@H]3C(F)(F)F)ncc12 (single isomer, unassigned) [Example 747] | ≤ 500 nM |  | ≤ 100 nM |
| CNc1ncc(C#Cc2cc3ccccn3n2)c2cc(NC(=O)[C@@H]3C[C@@H]3C(F)F)ncc12 (single isomer, unassigned) [Example 754] | ≤ 500 nM |  | ≤ 100 nM |
| CNc1ncc(C#Cc2cc3ccccn3n2)c2cc(NC(=O)[C@H]3C[C@H]3C(F)F)ncc12 (single isomer, unassigned) [Example 755] | ≤ 500 nM |  | ≤ 100 nM |

| Structure (SMILES) | IC50 [1] | Kd (TYK2 JH2; [2]) | Kd (TYK2 JH2; KINOMEscan KdELECT (Assay A)) |
| --- | --- | --- | --- |
| CNc1ncc(C#Cc2ccc(OCC(C)(C)O)cc2)c2cc(NC(=O)[C@@H]3C[C@@H]3C(F)F)ncc12 (single isomer, unassigned) [Example 756] | ≤ 500 nM |  | ≤ 100 nM |
| CNc1ncc(C#Cc2ccc(OCC(C)(C)O)cc2)c2cc(NC(=O)[C@H]3C[C@H]3C(F)F)ncc12 (single isomer, unassigned) [Example 757] | ≤ 500 nM |  | ≤ 100 nM |
| CNc1ncc(C#Cc2ccc(OC3CN(C(C)=O)C3)cc2)c2cc(NC(=O)[C@H]3C[C@H]3C(F)F)ncc12 (single isomer, unassigned) [Example 776] | ≤ 500 nM |  | ≤ 100 nM |
| CNc1ncc(C#Cc2ccc(OC3CN(C(C)=O)C3)cc2)c2cc(NC(=O)[C@@H]3C[C@@H]3C(F)F)ncc12 (single isomer, unassigned) [Example 777] | ≤ 500 nM |  | ≤ 100 nM |
| CNc1ncc(/C=C/c2ccc3c(c2)OC[C@H](COC)O3)c2cc(NC(=O)C3CC3)ncc12 (single isomer, unassigned) [Example 790] | ≤ 500 nM |  | ≤ 100 nM |
| CNc1ncc(/C=C/c2ccc3c(c2)OC[C@@H](COC)O3)c2cc(NC(=O)C3CC3)ncc12 (single isomer, unassigned) [Example 791] | ≤ 500 nM |  | ≤ 100 nM |
| CNc1ncc(C#Cc2ccc(OC)cn2)c2cc(NC(=O)[C@H]3C[C@H]3CF)ncc12 (single isomer, unassigned) [Example 822] | ≤ 500 nM |  | ≤ 100 nM |
| CNc1ncc(C#Cc2ccc(OC)cn2)c2cc(NC(=O)[C@@H]3C[C@@H]3CF)ncc12 (single isomer, unassigned) [Example 823] | ≤ 500 nM |  | ≤ 100 nM |
| CNc1ncc(-c2nc3cc(N4CCO[C@H](COC)C4)ccc3o2)c2cc(NC(=O)C3CC3)ncc12 (single isomer, unassigned) [Example 919] | ≤ 500 nM |  | ≤ 100 nM |
| CNc1ncc(-c2nc3cc(N4CCO[C@@H](COC)C4)ccc3o2)c2cc(NC(=O)C3CC3)ncc12 (single isomer, unassigned) [Example 920] | ≤ 500 nM |  | ≤ 100 nM |
| CNc1ncc(-c2nc3cc(N4CCO[C@@H](C(F)(F)F)C4)ccc3o2)c2cc(NC(=O)C3CC3)ncc12 (single isomer, unassigned) [Example 922] | ≤ 500 nM |  | ≤ 100 nM |
| CNc1ncc(-c2nc3cc(N4CCO[C@H](C(F)(F)F)C4)ccc3o2)c2cc(NC(=O)C3CC3)ncc12 (single isomer, unassigned) [Example 923] | ≤ 500 nM |  | ≤ 100 nM |
| CNc1ncc(-c2nc3cc(N4CCO[C@@H](C(C)(C)O)C4)ccc3o2)c2cc(NC(=O)C3CC3)ncc12 (single isomer, unassigned) [Example 925] | ≤ 500 nM |  | ≤ 100 nM |
| CNc1ncc(-c2nc3cc(N4CCO[C@H](C(C)(C)O)C4)ccc3o2)c2cc(NC(=O)C3CC3)ncc12 (single isomer, unassigned) [Example 926] | ≤ 500 nM |  | ≤ 100 nM |
| CNc1ncc(-c2nc3cc(N4CCO[C@H](C(F)F)C4)ccc3o2)c2cc(NC(=O)C3CC3)ncc12 (single isomer, unassigned) [Example 935] | ≤ 500 nM |  | ≤ 100 nM |
| CNc1ncc(-c2nc3cc(N4CCO[C@@H](C(F)F)C4)ccc3o2)c2cc(NC(=O)C3CC3)ncc12 (single isomer, unassigned) [Example 936] | ≤ 500 nM |  | ≤ 100 nM |
| CNc1ncc(-c2nc3cc(N4CC[C@@H](F)C4)ccc3o2)c2cc(NC(=O)C3CC3)ncc12 (single isomer, unassigned) [Example 944] | ≤ 500 nM |  | ≤ 100 nM |
| CNc1ncc(-c2nc3cc(N4CC[C@H](F)C4)ccc3o2)c2cc(NC(=O)C3CC3)ncc12 (single isomer, unassigned) [Example 945] | ≤ 500 nM |  | ≤ 100 nM |
| CNc1ncc(-c2nc3cc(C4(C)CCCO4)ccc3o2)c2cc(NC(=O)C3CC3)ncc12 (single isomer, unassigned) [Example 949] | ≤ 500 nM |  | ≤ 100 nM |
| CNc1ncc(C#Cc2ccc3c(c2)CC[C@H](CO)O3)c2cc(NC(=O)C3CC3)ncc12 (single isomer, unassigned) [Example 982] | ≤ 500 nM |  | ≤ 100 nM |
| CNc1ncc(C#Cc2ccc3c(c2)CC[C@@H](CO)O3)c2cc(NC(=O)C3CC3)ncc12 (single isomer, unassigned) [Example 983] | ≤ 500 nM |  | ≤ 100 nM |
| CNc1ncc(C#Cc2ccc3c(c2)CC[C@H](COC)O3)c2cc(NC(=O)C3CC3)ncc12 (single isomer, unassigned) [Example 988] | ≤ 500 nM |  | ≤ 100 nM |
